# Measured values published in PubChem BioAssay AID1963831 (Molecular Pharmacology Branch, DTP, NCI, 2024).
# pIC50: −log10 of the molar value.
# Tested on: 889142-216-R-J1-PDC complex spheroid viability
# Test: Anticancer human tumor 889142-216-R-J1-PDC patient-derived bladder carcinoma cell line growth inhibition [POLQ]
# Conditions: for pIC50: curve of first compound; for viability, T/C: stronger effect = lower value
# Description: Multicellular complex tumor spheroid response to Polymerase (POL) inhibitors (novobiocin, ART-558, RP6685) in combination with a variety of drugs and investigational agents in selected tumor cell lines
# The POL inhibitors (novobiocin, ART-558, and RP6685) were evaluated both individually and in combination with standard of care and investigational anticancer small molecules within a complex spheroid model of solid tumors. . Complex spheroids include a stromal component modeled by human endothelial cells (HUVEC) and fibroblasts modeled by human mesenchymal stem cells (MSCs). The concentration ranges selected for each drug and investigational agent were based upon clinically achievable concentrations if the clinical Cmax of the agent was known.
# Compounds. The drugs and investigational agents: novobiocin (NSC847541), ART-558 (NSC835418), RP-6685 (NSC848927), peposertib (NSC802822), ceralasertib (NSC780249), elimusertib (NSC800525), camonsertib (NSC841442), AZD-1390 (NSC803789), olaparib (NSC753686), talazoparib (NSC767125), rucaparib (NSC756644), sotorasib (NSC818433), MRTX-1133 (NSC836407), SN-38 (NSC673596), topotecan (NSC609699), epotoside (NSC141540), doxorubicin (NSC123127), gemcitabine (NSC613327), 5-fluorouracil (NSC19893), paclitaxel (NSC125973), vemurafenib (NSC761431), MSA-2 (NSC828583), SN-011 (NSC837082), adavosertib (NSC754352), prexasertib (NSC758257), carboplatin (NSC241240) and oxaliplatin (NSC266046), were obtained from the National Cancer Institute (NCI) Developmental Therapeutics Program Chemical Repository (21). The FDA-approved anticancer drug set is available from the Developmental Therapeutics Program at https://dtp.cancer.gov/organization/dscb/obtaining/. […] The stock solutions were prepared in dimethyl sulfoxide (DMSO, Sigma-Aldrich, St. Louis, MO, cat. D2650), except for the platinum compounds which were prepared in saline (Quality Biological, Gaithersburg, MD, cat. 114-055-101), at 800-fold the tested concentration and stored at -70 degrees C prior to their use. All drugs and investigational agents were tested over a range starting from a high concentration at or near the clinical Cmax and decreasing in half-log increments. If the clinical Cmax for an agent had not been determined, the highest concentration tested was 10 microM, except for SN-38, which was tested at a high concentration of 1 microM.
# Cell Culture. All cells were maintained in an incubator at 37 degrees C and 5% CO2 with 95% humidity. The PDC lines were cultured according to standard operating procedures established by the NCI PDMR (https://pdmr.cancer.gov). Table 3 of the manuscript, lists the cell lines along with the number of the three cell types plated to form the mct-spheroids and media for tumor cell growth. After thawing, all PDC lines, except 997537-175-T-J1-PDC and 415267-285-R-J2-PDC, were cultured in Matrigel-coated flasks prepared with a working solution of 1X Ham's F-12 nutrient mix, without supplementation (Thermo Fisher Scientific, cat. 11765054), 100 U/mL penicillin-streptomycin (Thermo Fisher Scientific, cat. 15140122), and 2.5% Matrigel (Corning Inc., Corning, NY, cat. 354248) for the first three passages. The two PDC lines 997537-175-T-J1-PDC and 415267-285-R-J2-PDC were cultured on uncoated flasks. The 857933-349-R-J2-PDC line was cultured in 6C/Colon 1B media containing advanced DMEM/F-12 (Thermo Fisher Scientific, cat. 12634028), 10 mM HEPES (Thermo Fisher Scientific, cat. 15630080), 1X GlutaMAX supplement (Thermo Fisher Scientific, cat. 35050061), 0.1 mg/mL primocin (InvivoGen, San Diego, CA, cat. ant-pm-2), 10% defined fetal bovine serum, heat inactivated (HyClone Laboratories Inc., Logan, UT, cat. SH30070.03HI), 50% L-WRN conditioned media (ATCC, cat. CRL-3276), 1.25 mM N-Acetyl-L-cysteine (Sigma-Aldrich, cat. A9165), 10 mM nicotinamide (Sigma-Aldrich, cat. N0636), 1X B-27 supplement (Thermo Fisher Scientific, cat. 17504044), 1X N-2 supplement (Thermo Fisher Scientific, cat. […]
# 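Also: spheroids exposed to compounds for seven days.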
# 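For viability, T/C in this document: 100% = DMSO vehicle control viability.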
structure (smiles),measurement,setting,value
COc1ccc([C@@H](O)c2cc(-c3ncnc4cc(N5CCOCC5)ccc34)c(F)cc2Cl)nn1 + Cc1cccc(N(C)C(=O)C2C(O)CCN2c2nc(C)cc(C(F)(F)F)c2C#N)c1,pIC50,second compound 0.0316 µM,5.42
same,pIC50,second compound 0.1 µM,5.57
same,pIC50,second compound 0.316 µM,5.65
same,pIC50,second compound 1 µM,5.55
same,pIC50,second compound 3.16 µM,5.41
same,pIC50,second compound 10 µM,5.73
same,"viability, T/C","second compound 0.0316 µM, first compound 0.0316 µM",123%
same,"viability, T/C","second compound 0.0316 µM, first compound 0.1 µM",81.2%
same,"viability, T/C","second compound 0.0316 µM, first compound 0.316 µM",102%
same,"viability, T/C","second compound 0.0316 µM, first compound 1 µM",69.6%
same,"viability, T/C","second compound 0.0316 µM, first compound 3.16 µM",47.6%
same,"viability, T/C","second compound 0.0316 µM, first compound 10 µM",36.8%
same,"viability, T/C","second compound 0.1 µM, first compound 0.0316 µM",99.5%
same,"viability, T/C","second compound 0.1 µM, first compound 0.1 µM",98.8%
same,"viability, T/C","second compound 0.1 µM, first compound 0.316 µM",97.7%
same,"viability, T/C","second compound 0.1 µM, first compound 1 µM",67.1%
same,"viability, T/C","second compound 0.1 µM, first compound 3.16 µM",51.1%
same,"viability, T/C","second compound 0.1 µM, first compound 10 µM",40.9%
same,"viability, T/C","second compound 0.316 µM, first compound 0.0316 µM",106%
same,"viability, T/C","second compound 0.316 µM, first compound 0.1 µM",103%
same,"viability, T/C","second compound 0.316 µM, first compound 0.316 µM",90.3%
same,"viability, T/C","second compound 0.316 µM, first compound 1 µM",59.6%
same,"viability, T/C","second compound 0.316 µM, first compound 3.16 µM",49.7%
same,"viability, T/C","second compound 0.316 µM, first compound 10 µM",35.5%
same,"viability, T/C","second compound 1 µM, first compound 0.0316 µM",103%
same,"viability, T/C","second compound 1 µM, first compound 0.1 µM",112%
same,"viability, T/C","second compound 1 µM, first compound 0.316 µM",90.3%
same,"viability, T/C","second compound 1 µM, first compound 1 µM",66.7%
same,"viability, T/C","second compound 1 µM, first compound 3.16 µM",52.5%
same,"viability, T/C","second compound 1 µM, first compound 10 µM",35.9%
same,"viability, T/C","second compound 3.16 µM, first compound 0.0316 µM",94.8%
same,"viability, T/C","second compound 3.16 µM, first compound 0.1 µM",79.8%
same,"viability, T/C","second compound 3.16 µM, first compound 0.316 µM",64.4%
same,"viability, T/C","second compound 3.16 µM, first compound 1 µM",70%
same,"viability, T/C","second compound 3.16 µM, first compound 3.16 µM",58.6%
same,"viability, T/C","second compound 3.16 µM, first compound 10 µM",35.2%
same,"viability, T/C","second compound 10 µM, first compound 0.0316 µM",91.2%
same,"viability, T/C","second compound 10 µM, first compound 0.1 µM",80.5%
same,"viability, T/C","second compound 10 µM, first compound 0.316 µM",63.6%
same,"viability, T/C","second compound 10 µM, first compound 1 µM",53.6%
same,"viability, T/C","second compound 10 µM, first compound 3.16 µM",53.6%
same,"viability, T/C","second compound 10 µM, first compound 10 µM",28.9%
